The source of these data is ChEMBL document CHEMBL3045366, “Pyridazin-3(2H)-ones: the versatile pharmacophore of medicinal significance” (Med Chem Res, 2013).

The nature of data set [1]: Half life in Rattus norvegicus (rat). The class given is ADME, organism-based. As to conditions: in vivo.
In another data set the test system is Mus musculus. The data set can be described thus: Anti-inflammatory activity in Mus musculus (mouse) assessed as inhibition of arachidonic acid-induced ear edema at 30 umol/kg, po relative to control. The class given is functional.
In another data set the test system is Thoracic aorta. The data set can be described thus: Inodilatory activity in Wistar Rattus norvegicus (rat) thoracic aorta assessed as inhibition of phenylephrine-induced contraction. The class given is functional, tissue-based.
Data set [2] can be described thus: Inhibition of acyl-coA cholesterol O-acyltransferase (unknown origin). Also noted: species or system Homo sapiens.

Molecules are shown by their SMILES.

`O=C(O)COc1cccc2c1CC[C@H](Cn1nc(C(c3ccccc3)c3ccccc3)ccc1=O)C2` had a half-life in data set [1] of 4.3 h.

With `CCOc1ccc(C2=NN(CCCCOc3ccc(C4=NNC(=O)CC4C)cc3)C(=O)C3CC=CCC23)cc1OCC` (stereo not given), in the data set with Mus musculus, the inhibition in vivo at 30 µmol/kg came to 46%.

With `CS(=O)(=O)Nc1ccc(C2=NN(c3ccccc3)C(=O)CC2)cc1`, the IC50 in the data set on Thoracic aorta amounted to 0.08 µM.

In the case of `CCCCCCn1nc(-c2ccccc2)c(-c2ccccc2)cc1=O`, the midpoint of inhibition in data set [2], the IC50, lay at 57 µM.

Take `COc1ccc(C2=NN(CCCCOc3ccc(C4=NNC(=O)CC4C)cc3)C(=O)C3CC=CCC23)cc1Cl` (stereo not given): in the data set with Mus musculus, the inhibition in vivo at 30 µmol/kg was determined as 46%.

One may read the half-life as the time in which the quantity being followed falls by half. The term inhibition in vivo denotes how much of the control response was suppressed. Broadly, the IC50 is the point on the concentration scale where inhibition reaches its midpoint.
